Measured values as given in ChEMBL document CHEMBL3797159, “The discovery and the structural basis of an imidazo[4,5-b]pyridine-based p21-activated kinase 4 inhibitor” (Bioorg Med Chem Lett, 2016).
Activity calls are given as the source filed them. No cut-off for these calls is given here.

How the values were obtained:
[1] = target: Aurora kinase B (Homo sapiens) (UniProt Q96GD4); assay: Inhibition of human recombinant Aurora-B expressed in sf9 cells using kemptide as substrate by radiometric assay in presence of gamma[32P]ATP
[2] = Solubility of compound; type: physicochemical
[3] = target: T1, Dual specificity tyrosine-phosphorylation-regulated kinase 2 (Homo sapiens) (UniProt Q92630); assay: Inhibition of human DYRK2 by radiometric assay
T1 sequence (whole entry): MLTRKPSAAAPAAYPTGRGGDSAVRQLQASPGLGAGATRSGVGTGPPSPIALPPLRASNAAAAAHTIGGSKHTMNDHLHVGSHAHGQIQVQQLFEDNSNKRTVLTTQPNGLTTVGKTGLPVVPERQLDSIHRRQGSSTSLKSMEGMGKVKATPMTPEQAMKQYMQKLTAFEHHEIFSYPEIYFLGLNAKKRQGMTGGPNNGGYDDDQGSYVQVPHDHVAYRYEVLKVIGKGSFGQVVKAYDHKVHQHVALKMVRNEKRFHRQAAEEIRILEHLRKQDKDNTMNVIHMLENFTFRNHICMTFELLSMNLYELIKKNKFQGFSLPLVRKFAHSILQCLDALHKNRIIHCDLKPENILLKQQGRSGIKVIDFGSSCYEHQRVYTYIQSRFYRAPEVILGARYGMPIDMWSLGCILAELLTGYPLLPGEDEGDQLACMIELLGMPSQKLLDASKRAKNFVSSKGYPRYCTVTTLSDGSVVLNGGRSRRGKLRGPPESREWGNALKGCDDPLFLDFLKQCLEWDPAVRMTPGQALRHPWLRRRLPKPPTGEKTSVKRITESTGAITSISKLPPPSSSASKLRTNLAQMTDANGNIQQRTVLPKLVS

[4] = target: T2, Serine/threonine-protein kinase PAK 4 (Homo sapiens, UniProt O96013); assay: Inhibition of human PAK4 using myelin basic protein as substrate incubated for 40 mins by scintillation counting method in presence of gamma[33P]ATP
Target sequence in this assay (O96013 whole entry): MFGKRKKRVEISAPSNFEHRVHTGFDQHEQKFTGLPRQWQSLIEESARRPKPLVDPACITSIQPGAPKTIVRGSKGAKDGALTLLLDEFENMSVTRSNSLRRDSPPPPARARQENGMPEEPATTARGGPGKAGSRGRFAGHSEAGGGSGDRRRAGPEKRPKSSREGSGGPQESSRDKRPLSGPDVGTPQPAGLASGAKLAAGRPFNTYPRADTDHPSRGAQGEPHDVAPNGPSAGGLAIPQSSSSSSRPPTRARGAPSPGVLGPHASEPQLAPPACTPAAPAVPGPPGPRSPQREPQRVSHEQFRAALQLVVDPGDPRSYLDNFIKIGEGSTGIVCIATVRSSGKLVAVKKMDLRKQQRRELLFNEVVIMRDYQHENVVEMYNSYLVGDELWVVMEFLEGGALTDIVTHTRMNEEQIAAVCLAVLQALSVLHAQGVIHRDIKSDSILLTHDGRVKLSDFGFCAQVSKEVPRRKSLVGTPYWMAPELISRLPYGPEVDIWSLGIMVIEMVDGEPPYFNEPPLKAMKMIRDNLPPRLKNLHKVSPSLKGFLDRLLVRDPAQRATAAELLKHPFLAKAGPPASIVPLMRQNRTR

[5] = target: T3, Aurora kinase C (Homo sapiens) (UniProt Q9UQB9); assay: Inhibition of human Aurora-C by radiometric assay
T3 sequence (whole entry): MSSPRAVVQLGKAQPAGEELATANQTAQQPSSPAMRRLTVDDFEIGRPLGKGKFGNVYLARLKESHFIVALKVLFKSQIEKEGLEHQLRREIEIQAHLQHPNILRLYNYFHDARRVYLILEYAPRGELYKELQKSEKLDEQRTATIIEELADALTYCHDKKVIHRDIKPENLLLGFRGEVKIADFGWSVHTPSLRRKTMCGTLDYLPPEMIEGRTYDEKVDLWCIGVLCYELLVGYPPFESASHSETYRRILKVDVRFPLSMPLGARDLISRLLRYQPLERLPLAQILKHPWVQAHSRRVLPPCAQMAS

[6] = target: CDK4/Cyclin D3 (Homo sapiens) (UniProt P11802+P30281); assay: Inhibition of human recombinant CDK4/Cyclin D3 expressed in sf21 cells using Rb (773 to 928 residues) as substrate by radiometric assay in presence of gamma[32P]ATP
[7] = target: DNA-dependent protein kinase catalytic subunit (Homo sapiens) (UniProt P78527); assay: Inhibition of human DNA-PK by radiometric assay
[8] = target: T2, Serine/threonine-protein kinase PAK 4; details: 50 uM
Target sequence in this assay (O96013 whole entry, looked up): as the sequence (O96013 whole entry) above
Description: Binding affinity to PAK4 (unknown origin) assessed as change in melting temperature at 50 uM by circular dichroism analysis

[9] = target: T2, Serine/threonine-protein kinase PAK 4; assay: Binding affinity to recombinant human N-terminal His6-tagged PAK4 kinase domain (300 to 591 residues) expressed in Escherichia coli BL21(DE3) cells at 50 uM by circular dichroism analysis
Target sequence in this assay (O96013 whole entry, looked up): as the sequence (O96013 whole entry) above

Sequence of DNA-dependent protein kinase catalytic subunit (Homo sapiens) (P78527 whole entry): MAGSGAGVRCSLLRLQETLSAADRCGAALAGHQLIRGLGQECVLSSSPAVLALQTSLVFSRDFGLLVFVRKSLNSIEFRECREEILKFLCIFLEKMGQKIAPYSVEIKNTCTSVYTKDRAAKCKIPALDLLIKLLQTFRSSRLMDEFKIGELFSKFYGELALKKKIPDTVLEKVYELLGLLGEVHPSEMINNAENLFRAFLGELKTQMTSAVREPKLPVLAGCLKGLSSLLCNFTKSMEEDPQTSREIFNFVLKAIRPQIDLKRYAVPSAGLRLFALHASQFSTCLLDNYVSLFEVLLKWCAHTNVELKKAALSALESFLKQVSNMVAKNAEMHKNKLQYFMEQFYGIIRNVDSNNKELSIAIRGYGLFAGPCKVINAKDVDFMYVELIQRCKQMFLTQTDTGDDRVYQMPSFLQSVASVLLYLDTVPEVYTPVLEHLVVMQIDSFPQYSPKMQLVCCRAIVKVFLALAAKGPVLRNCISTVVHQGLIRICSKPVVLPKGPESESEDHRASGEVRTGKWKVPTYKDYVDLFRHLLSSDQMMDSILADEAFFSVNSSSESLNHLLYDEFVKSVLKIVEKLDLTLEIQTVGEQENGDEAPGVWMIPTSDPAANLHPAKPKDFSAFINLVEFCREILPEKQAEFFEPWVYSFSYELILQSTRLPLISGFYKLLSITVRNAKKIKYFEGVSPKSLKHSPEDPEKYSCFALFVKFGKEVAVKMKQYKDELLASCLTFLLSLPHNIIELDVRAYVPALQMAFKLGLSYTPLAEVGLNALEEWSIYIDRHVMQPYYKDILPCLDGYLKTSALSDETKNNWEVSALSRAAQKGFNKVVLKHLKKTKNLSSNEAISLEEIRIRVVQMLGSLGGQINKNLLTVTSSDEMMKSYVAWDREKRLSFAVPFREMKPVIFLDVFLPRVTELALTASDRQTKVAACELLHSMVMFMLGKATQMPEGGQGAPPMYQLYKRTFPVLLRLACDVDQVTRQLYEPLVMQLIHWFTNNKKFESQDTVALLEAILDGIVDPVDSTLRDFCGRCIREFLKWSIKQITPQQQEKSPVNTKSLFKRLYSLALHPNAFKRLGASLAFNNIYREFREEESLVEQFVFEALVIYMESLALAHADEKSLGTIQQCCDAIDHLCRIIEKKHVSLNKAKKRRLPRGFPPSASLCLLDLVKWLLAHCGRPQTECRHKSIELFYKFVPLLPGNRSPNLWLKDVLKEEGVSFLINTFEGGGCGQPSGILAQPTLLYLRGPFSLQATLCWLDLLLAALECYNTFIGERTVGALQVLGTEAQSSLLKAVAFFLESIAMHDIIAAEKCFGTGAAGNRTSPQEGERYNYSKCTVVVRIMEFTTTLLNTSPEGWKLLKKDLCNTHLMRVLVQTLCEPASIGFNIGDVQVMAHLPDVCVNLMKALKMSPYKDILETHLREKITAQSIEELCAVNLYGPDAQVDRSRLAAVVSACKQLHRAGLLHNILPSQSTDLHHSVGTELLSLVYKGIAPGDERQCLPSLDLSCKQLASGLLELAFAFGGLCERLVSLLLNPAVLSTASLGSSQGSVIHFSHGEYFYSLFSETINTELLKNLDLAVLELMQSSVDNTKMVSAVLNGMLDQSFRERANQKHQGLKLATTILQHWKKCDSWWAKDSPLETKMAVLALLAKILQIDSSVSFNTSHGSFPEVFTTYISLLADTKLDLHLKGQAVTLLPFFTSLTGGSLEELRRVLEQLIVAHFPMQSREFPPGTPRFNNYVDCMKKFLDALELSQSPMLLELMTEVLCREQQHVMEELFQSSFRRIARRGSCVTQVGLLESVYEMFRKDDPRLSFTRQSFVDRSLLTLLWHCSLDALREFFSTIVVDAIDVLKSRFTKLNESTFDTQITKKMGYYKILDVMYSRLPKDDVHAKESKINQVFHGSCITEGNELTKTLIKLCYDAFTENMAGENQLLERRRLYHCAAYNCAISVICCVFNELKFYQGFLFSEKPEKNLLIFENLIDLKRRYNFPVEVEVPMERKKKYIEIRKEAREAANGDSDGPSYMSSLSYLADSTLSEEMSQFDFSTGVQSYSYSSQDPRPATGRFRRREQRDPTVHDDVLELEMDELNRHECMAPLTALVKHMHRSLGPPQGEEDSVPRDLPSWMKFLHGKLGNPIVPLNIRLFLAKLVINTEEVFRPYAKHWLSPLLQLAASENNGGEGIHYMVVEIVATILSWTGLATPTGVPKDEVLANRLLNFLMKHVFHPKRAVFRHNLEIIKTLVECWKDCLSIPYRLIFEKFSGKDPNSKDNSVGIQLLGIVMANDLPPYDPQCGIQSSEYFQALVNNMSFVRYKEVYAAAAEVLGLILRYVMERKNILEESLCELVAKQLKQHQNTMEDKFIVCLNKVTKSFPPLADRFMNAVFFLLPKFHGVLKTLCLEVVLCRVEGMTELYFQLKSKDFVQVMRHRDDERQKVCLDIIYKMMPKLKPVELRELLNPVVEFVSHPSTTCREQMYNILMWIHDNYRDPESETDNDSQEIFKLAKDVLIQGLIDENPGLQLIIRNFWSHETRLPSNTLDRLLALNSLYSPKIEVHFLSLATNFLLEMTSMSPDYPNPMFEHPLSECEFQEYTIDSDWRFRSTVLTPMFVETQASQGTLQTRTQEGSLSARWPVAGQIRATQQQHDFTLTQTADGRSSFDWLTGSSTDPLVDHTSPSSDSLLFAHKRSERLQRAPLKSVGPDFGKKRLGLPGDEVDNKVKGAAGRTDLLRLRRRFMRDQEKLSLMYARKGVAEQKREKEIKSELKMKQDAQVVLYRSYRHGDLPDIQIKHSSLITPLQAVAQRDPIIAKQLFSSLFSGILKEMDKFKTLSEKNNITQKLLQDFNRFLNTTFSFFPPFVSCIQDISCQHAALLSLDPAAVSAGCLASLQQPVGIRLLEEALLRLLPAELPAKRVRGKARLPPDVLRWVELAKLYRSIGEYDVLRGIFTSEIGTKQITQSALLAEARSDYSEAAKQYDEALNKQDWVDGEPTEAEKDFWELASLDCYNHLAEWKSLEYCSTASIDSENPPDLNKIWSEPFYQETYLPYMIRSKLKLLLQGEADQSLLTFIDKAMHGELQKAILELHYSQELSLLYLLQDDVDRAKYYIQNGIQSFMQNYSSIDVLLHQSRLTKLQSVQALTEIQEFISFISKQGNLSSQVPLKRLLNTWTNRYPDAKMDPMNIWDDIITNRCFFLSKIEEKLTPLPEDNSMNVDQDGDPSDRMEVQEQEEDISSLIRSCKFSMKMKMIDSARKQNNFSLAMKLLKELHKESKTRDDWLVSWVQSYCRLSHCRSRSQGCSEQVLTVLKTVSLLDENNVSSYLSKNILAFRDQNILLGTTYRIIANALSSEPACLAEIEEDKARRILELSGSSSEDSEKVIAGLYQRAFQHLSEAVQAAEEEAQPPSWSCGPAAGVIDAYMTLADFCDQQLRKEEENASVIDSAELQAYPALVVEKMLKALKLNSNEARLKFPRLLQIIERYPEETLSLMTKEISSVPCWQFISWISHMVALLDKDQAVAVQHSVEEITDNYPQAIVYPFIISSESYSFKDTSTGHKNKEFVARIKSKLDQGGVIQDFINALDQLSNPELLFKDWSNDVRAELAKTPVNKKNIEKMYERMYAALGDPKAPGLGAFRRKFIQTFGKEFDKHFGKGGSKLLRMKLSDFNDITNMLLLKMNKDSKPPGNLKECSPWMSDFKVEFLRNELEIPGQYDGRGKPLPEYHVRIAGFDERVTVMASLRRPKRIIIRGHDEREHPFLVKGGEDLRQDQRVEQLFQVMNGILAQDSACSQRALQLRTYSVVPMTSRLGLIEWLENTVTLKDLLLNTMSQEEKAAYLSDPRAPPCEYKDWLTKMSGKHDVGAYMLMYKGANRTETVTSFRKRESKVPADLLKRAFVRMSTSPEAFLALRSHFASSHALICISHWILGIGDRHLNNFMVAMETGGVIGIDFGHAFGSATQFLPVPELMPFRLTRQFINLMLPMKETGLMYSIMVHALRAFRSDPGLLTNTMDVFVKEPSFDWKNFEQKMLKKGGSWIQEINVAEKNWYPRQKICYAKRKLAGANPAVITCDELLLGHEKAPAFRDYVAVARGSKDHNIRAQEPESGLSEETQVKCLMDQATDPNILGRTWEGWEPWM
Sequence of Aurora kinase B (Homo sapiens) (Q96GD4 whole entry): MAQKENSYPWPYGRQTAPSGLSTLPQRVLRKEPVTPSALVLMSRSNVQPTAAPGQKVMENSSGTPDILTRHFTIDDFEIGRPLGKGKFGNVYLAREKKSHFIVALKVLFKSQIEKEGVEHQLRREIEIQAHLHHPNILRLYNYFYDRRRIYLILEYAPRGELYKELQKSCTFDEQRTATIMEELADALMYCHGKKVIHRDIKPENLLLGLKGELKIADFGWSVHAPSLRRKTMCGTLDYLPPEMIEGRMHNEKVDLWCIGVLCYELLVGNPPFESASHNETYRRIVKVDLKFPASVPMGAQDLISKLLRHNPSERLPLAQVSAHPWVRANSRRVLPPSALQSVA

SMILES	inhibition [1]	solubility [2] [µM]	inhibition [3]	IC50 [4] [µM]	inhibition [5]	inhibition [6]	inhibition [7]	Tm [8] [°C]	ΔTm [9] [°C]
CC(C)c1nn(C)cc1-c1nc2cc(Br)cnc2[nH]1	Active	< 100	inactive	8.7	Active	inactive	inactive	48	
COc1nc(NCCc2c[nH]c3ccccc23)nc(Nc2ccc3[nH]ncc3c2)n1									6
Cc1nc(Nc2n[nH]c3c2CN(C(=O)N[C@H](CN(C)C)c2ccccc2)C3(C)C)c2sccc2n1									16
